Source: patent US12077503B2, “Substituted cyclic amides and their use as herbicides” (FMC CORPORATION, priority 2015, dated 2024)

Key:
Assay type in all cases: in vivo
[1] = tested on: barnyardgrass (Echinochloa crus-galli); test: Test G Pre-Emergence Protocol; details: Echinochloa crus-galli, pre-emergence, 312 h, evaluated after 13 days; for pest or weed control at 15.625 g/ha: 15.625 g ai/ha; for pest or weed control at 15.625 g/ha / pest or weed control at 250 g/ha: read-out: Barnyardgrass damage rating (100=total damage to plant; 0=no damage to plant); for pest or weed control at 62.5 g/ha: 62.5 g ai/ha, 100=total damage to plant, 0=no damage to plant, read-out: Barnyardgrass damage rating; for pest or weed control at 250 g/ha: 250 g ai/ha
Procedure, shortened: (§1)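 Pots of seeds in standard soil were grown for one day in a glasshouse (24/16 °C day/night, 14 h light, 65% humidity), then sprayed with compound in acetone/water 50:50 with 0.5% Tween 20 at 15.625, 62.5 or 250 g/ha. Damage was scored after 13 days on a 0 (none) to 100 (total) scale.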

corn (Zea mays) [2] = test: Test G Pre-Emergence Protocol; details: Zea mays, pre-emergence, 312 h, evaluated after 13 days; for plant injury at 15.625 g/ha: 15.625 g ai/ha; for plant injury at 15.625 g/ha / plant injury at 250 g/ha: read-out: Corn damage rating (100=total damage to plant; 0=no damage to plant); for plant injury at 62.5 g/ha: 62.5 g ai/ha, 100=total damage to plant, 0=no damage to plant, read-out: Corn damage rating; for plant injury at 250 g/ha: 250 g ai/ha
Procedure, shortened: as §1

[3] = tested on: giant foxtail (Setaria faberi); test: Test G Pre-Emergence Protocol; details: Setaria faberi, pre-emergence, 312 h, evaluated after 13 days; for pest or weed control at 15.625 g/ha: 15.625 g ai/ha; for pest or weed control at 15.625 g/ha / pest or weed control at 250 g/ha: read-out: Foxtail, Giant damage rating (100=total damage to plant; 0=no damage to plant); for pest or weed control at 62.5 g/ha: 62.5 g ai/ha, 100=total damage to plant, 0=no damage to plant, read-out: Foxtail, Giant damage rating; for pest or weed control at 250 g/ha: 250 g ai/ha
Procedure, shortened: as §1

[4] = tested on: ivy-leaved morning glory (Ipomoea hederacea); test: Test G Pre-Emergence Protocol; details: Ipomoea, pre-emergence, 312 h, evaluated after 13 days; for pest or weed control at 15.625 g/ha: 15.625 g ai/ha; for pest or weed control at 15.625 g/ha / pest or weed control at 250 g/ha: read-out: Morningglory, Ivy-leaved damage rating (100=total damage to plant; 0=no damage to plant); for pest or weed control at 62.5 g/ha: 62.5 g ai/ha, 100=total damage to plant, 0=no damage to plant, read-out: Morningglory, Ivy-leaved damage rating; for pest or weed control at 250 g/ha: 250 g ai/ha
Procedure, shortened: as §1

[5] = tested on: redroot pigweed (Amaranthus retroflexus); test: Test G Pre-Emergence Protocol; details: Amaranthus retroflexus, pre-emergence, 312 h, evaluated after 13 days; for pest or weed control at 15.625 g/ha: 15.625 g ai/ha; for pest or weed control at 15.625 g/ha / pest or weed control at 250 g/ha: read-out: Pigweed, Redroot damage rating (100=total damage to plant; 0=no damage to plant); for pest or weed control at 62.5 g/ha: 62.5 g ai/ha, 100=total damage to plant, 0=no damage to plant, read-out: Pigweed, Redroot damage rating; for pest or weed control at 250 g/ha: 250 g ai/ha
Procedure, shortened: as §1

[6] = tested on: velvetleaf (Abutilon theophrasti); test: Test G Pre-Emergence Protocol; details: Abutilon theophrasti, pre-emergence, 312 h, evaluated after 13 days; for pest or weed control at 15.625 g/ha: 15.625 g ai/ha; for pest or weed control at 15.625 g/ha / pest or weed control at 250 g/ha: read-out: Velvetleaf damage rating (100=total damage to plant; 0=no damage to plant); for pest or weed control at 62.5 g/ha: 62.5 g ai/ha, 100=total damage to plant, 0=no damage to plant, read-out: Velvetleaf damage rating; for pest or weed control at 250 g/ha: 250 g ai/ha
Procedure, shortened: as §1

[7] = tested on: barnyardgrass (Echinochloa crus-galli); test: Test G Post-Emergence Protocol; details: Echinochloa crus-galli, post-emergence, 312 h, read-out: Barnyardgrass damage rating; for pest or weed control at 15.625 g/ha: 15.625 g ai/ha, evaluated after 13 days (100=total damage to plant; 0=no damage to plant); for pest or weed control at 62.5 g/ha: 62.5 g ai/ha; for pest or weed control at 62.5 g/ha / pest or weed control at 250 g/ha: evaluated after 13 days, 100=total damage to plant, 0=no damage to plant; for pest or weed control at 250 g/ha: 250 g ai/ha
Procedure, shortened: (§2)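 Post-emergence herbicidal damage, scored visually 0–100 at 13 days. Application at 15.625, 62.5 or 250 g/ha onto 8-day-old plants grown under glasshouse control.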

corn (Zea mays) [8] = test: Test G Post-Emergence Protocol; details: Zea mays, post-emergence, 312 h, read-out: Corn damage rating; for plant injury at 15.625 g/ha: 15.625 g ai/ha, evaluated after 13 days (100=total damage to plant; 0=no damage to plant); for plant injury at 62.5 g/ha: 62.5 g ai/ha; for plant injury at 62.5 g/ha / plant injury at 250 g/ha: evaluated after 13 days, 100=total damage to plant, 0=no damage to plant; for plant injury at 250 g/ha: 250 g ai/ha
Procedure, shortened: as §2

[9] = tested on: giant foxtail (Setaria faberi); test: Test G Post-Emergence Protocol; details: Setaria faberi, post-emergence, 312 h, read-out: Foxtail, Giant damage rating; for pest or weed control at 15.625 g/ha: 15.625 g ai/ha, evaluated after 13 days (100=total damage to plant; 0=no damage to plant); for pest or weed control at 62.5 g/ha: 62.5 g ai/ha; for pest or weed control at 62.5 g/ha / pest or weed control at 250 g/ha: evaluated after 13 days, 100=total damage to plant, 0=no damage to plant; for pest or weed control at 250 g/ha: 250 g ai/ha
Procedure, shortened: as §2

[10] = tested on: ivy-leaved morning glory (Ipomoea hederacea); test: Test G Post-Emergence Protocol; details: Ipomoea, post-emergence, 312 h, read-out: Morningglory, Ivy-leaved damage rating; for pest or weed control at 15.625 g/ha: 15.625 g ai/ha, evaluated after 13 days (100=total damage to plant; 0=no damage to plant); for pest or weed control at 62.5 g/ha: 62.5 g ai/ha; for pest or weed control at 62.5 g/ha / pest or weed control at 250 g/ha: evaluated after 13 days, 100=total damage to plant, 0=no damage to plant; for pest or weed control at 250 g/ha: 250 g ai/ha
Procedure, shortened: as §2

[11] = tested on: redroot pigweed (Amaranthus retroflexus); test: Test G Post-Emergence Protocol; details: Amaranthus retroflexus, post-emergence, 312 h, read-out: Pigweed, Redroot damage rating; for pest or weed control at 15.625 g/ha: 15.625 g ai/ha, evaluated after 13 days (100=total damage to plant; 0=no damage to plant); for pest or weed control at 62.5 g/ha: 62.5 g ai/ha; for pest or weed control at 62.5 g/ha / pest or weed control at 250 g/ha: evaluated after 13 days, 100=total damage to plant, 0=no damage to plant; for pest or weed control at 250 g/ha: 250 g ai/ha
Procedure, shortened: as §2

[12] = tested on: velvetleaf (Abutilon theophrasti); test: Test G Post-Emergence Protocol; details: Abutilon theophrasti, post-emergence, 312 h, read-out: Velvetleaf damage rating; for pest or weed control at 15.625 g/ha: 15.625 g ai/ha, evaluated after 13 days (100=total damage to plant; 0=no damage to plant); for pest or weed control at 62.5 g/ha: 62.5 g ai/ha; for pest or weed control at 62.5 g/ha / pest or weed control at 250 g/ha: evaluated after 13 days, 100=total damage to plant, 0=no damage to plant; for pest or weed control at 250 g/ha: 250 g ai/ha
Procedure, shortened: as §2

Structure (SMILES)	pest or weed control at 15.625 g/ha [1]	pest or weed control at 62.5 g/ha [1]	pest or weed control at 250 g/ha [1]	plant injury at 15.625 g/ha (corn (Zea mays) [2])	plant injury at 62.5 g/ha (corn (Zea mays) [2])	plant injury at 250 g/ha (corn (Zea mays) [2])	pest or weed control at 15.625 g/ha [3]	pest or weed control at 62.5 g/ha [3]	pest or weed control at 250 g/ha [3]	pest or weed control at 15.625 g/ha [4]	pest or weed control at 62.5 g/ha [4]	pest or weed control at 250 g/ha [4]	pest or weed control at 15.625 g/ha [5]	pest or weed control at 62.5 g/ha [5]	pest or weed control at 250 g/ha [5]	pest or weed control at 15.625 g/ha [6]	pest or weed control at 62.5 g/ha [6]	pest or weed control at 250 g/ha [6]	pest or weed control at 15.625 g/ha [7]	pest or weed control at 62.5 g/ha [7]	other results
CC(C)Oc1cc(F)cc(C2CN(C)C(=O)C2C(=O)Nc2cccc(F)c2F)c1 (centres unmarked) [Compound 1724]	50%	70%	90%	0%	40%	90%	70%	70%	90%	0%	0%	0%	0%	0%	0%	0%	0%	0%	40%	70%	pest or weed control at 250 g/ha [7]: 90%; plant injury at 15.625 g/ha (corn (Zea mays) [8]): 0%; plant injury at 62.5 g/ha (corn (Zea mays) [8]): 30%; plant injury at 250 g/ha (corn (Zea mays) [8]): 90%; pest or weed control at 15.625 g/ha [9]: 70%; pest or weed control at 62.5 g/ha [9]: 70%; pest or weed control at 250 g/ha [9]: 90%; pest or weed control at 15.625 g/ha [10]: 40%; pest or weed control at 62.5 g/ha [10]: 30%; pest or weed control at 250 g/ha [10]: 70%; pest or weed control at 15.625 g/ha [11]: 0%; pest or weed control at 62.5 g/ha [11]: 10%; pest or weed control at 250 g/ha [11]: 60%; pest or weed control at 15.625 g/ha [12]: 0%; pest or weed control at 62.5 g/ha [12]: 10%; pest or weed control at 250 g/ha [12]: 70%
CN1CC(C2CCN=C(C(C)(C)C)N2)C(C(=O)Nc2ccc(F)c(F)c2F)C1=O (centres unmarked) [Compound 1771]	0%	0%	0%	0%	0%	0%	0%	0%	0%	0%	0%	0%	0%	0%	0%	0%	0%	0%	0%	0%	pest or weed control at 250 g/ha [7]: 0%; plant injury at 15.625 g/ha (corn (Zea mays) [8]): 0%; plant injury at 62.5 g/ha (corn (Zea mays) [8]): 0%; plant injury at 250 g/ha (corn (Zea mays) [8]): 0%; pest or weed control at 15.625 g/ha [9]: 0%; pest or weed control at 62.5 g/ha [9]: 0%; pest or weed control at 15.625 g/ha [10]: 0%; pest or weed control at 62.5 g/ha [10]: 0%; pest or weed control at 250 g/ha [10]: 0%; pest or weed control at 15.625 g/ha [11]: 0%; pest or weed control at 62.5 g/ha [11]: 0%; pest or weed control at 250 g/ha [11]: 0%; pest or weed control at 15.625 g/ha [12]: 0%; pest or weed control at 62.5 g/ha [12]: 0%; pest or weed control at 250 g/ha [12]: 0%
CN1C[C@H](c2ccc(Cl)cc2)[C@@H](C(=O)Nc2ccc(F)nc2F)C1=O [Compound 1811]	80%	90%	90%	0%	70%	80%	90%	90%	90%	0%	20%	80%	30%	70%	80%	10%	50%	70%	80%	80%	pest or weed control at 250 g/ha [7]: 80%; plant injury at 15.625 g/ha (corn (Zea mays) [8]): 40%; plant injury at 62.5 g/ha (corn (Zea mays) [8]): 60%; plant injury at 250 g/ha (corn (Zea mays) [8]): 80%; pest or weed control at 15.625 g/ha [9]: 80%; pest or weed control at 62.5 g/ha [9]: 80%; pest or weed control at 250 g/ha [9]: 80%; pest or weed control at 15.625 g/ha [10]: 40%; pest or weed control at 62.5 g/ha [10]: 20%; pest or weed control at 250 g/ha [10]: 70%; pest or weed control at 15.625 g/ha [11]: 20%; pest or weed control at 62.5 g/ha [11]: 60%; pest or weed control at 250 g/ha [11]: 80%; pest or weed control at 15.625 g/ha [12]: 10%; pest or weed control at 62.5 g/ha [12]: 30%; pest or weed control at 250 g/ha [12]: 50%
